Experimental findings from US9890117B2, “Benzamide compounds and related methods of use” (Northwestern University, priority 2012, dated 2018) are described below.

The nature of series [1]: Microsomal stability screen, human. The note with it: 1 μM.
Series [2] is described as follows: Microsomal stability screen, mouse. The note with it: 1 μM.
The next series addresses T1, SIRT2 (Homo sapiens, UniProt Q8IXJ6).
T1 construct: recombinant active enzymes SIRT1, SIRT2, and the catalytically active fragment of SIRT3
T1 sequence (Q8IXJ6 1-389): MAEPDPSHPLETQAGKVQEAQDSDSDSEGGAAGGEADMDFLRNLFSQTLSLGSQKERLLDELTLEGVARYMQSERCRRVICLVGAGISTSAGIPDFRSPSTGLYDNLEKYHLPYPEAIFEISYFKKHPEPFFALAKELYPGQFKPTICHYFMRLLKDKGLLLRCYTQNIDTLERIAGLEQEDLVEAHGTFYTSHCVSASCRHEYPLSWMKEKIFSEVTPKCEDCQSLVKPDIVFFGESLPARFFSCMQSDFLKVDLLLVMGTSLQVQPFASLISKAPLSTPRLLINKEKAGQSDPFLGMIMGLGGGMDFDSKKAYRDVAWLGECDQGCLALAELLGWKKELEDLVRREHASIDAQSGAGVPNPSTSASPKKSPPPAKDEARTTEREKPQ
Briefly: Fluor-de-Lys biochemical sirtuin deacetylation assay, SIRT2. As to conditions: 10 μM.

As to `CN(c1ccc(F)cc1)S(=O)(=O)c1cccc(C(=O)Nc2ccc(C#N)cc2)c1` [Compound 47, N-(4-Cyanophenyl)-3-(N-(4-fluorophenyl)-N-methylsulfamoyl)benzamide], in series [1], the “Mean remaining parent NADPH-free (%)” value is listed as 89% and the “Mean remaining parent with NADPH (%)” value is on record as 16%.

Turning to `CN(c1ccc(Cl)cc1)S(=O)(=O)c1cccc(C(=O)Nc2ccc(C#N)cn2)c1` [Compound 71, 3-(N-(4-Chlorophenyl)-N-methylsulfamoyl)-N-(5-cyanopyridin-2-yl)benzamide], the “Mean remaining parent NADPH-free (%)” value in series [1] worked out at 91%; in series [2], 96%. In addition, the “Mean remaining parent with NADPH (%)” value in series [1] is reported as 2%; in series [2], 1%.

Regarding `CC(=O)c1ccc(N(C)S(=O)(=O)c2cccc(C(=O)Nc3ccc(Cl)cc3)c2)cc1` [Compound 102, 3-(N-(4-Acetylphenyl)-N-methylsulfamoyl)-N-(4-chlorophenyl)benzamide], in series [1], the “Mean remaining parent NADPH-free (%)” value is listed as 94% and the “Mean remaining parent with NADPH (%)” value was 12%. Further, in series [2], the “Mean remaining parent NADPH-free (%)” value is 108% and the “Mean remaining parent with NADPH (%)” value amounted to 0%.

On to `CC(=O)c1ccc(N(C)S(=O)(=O)c2cccc(C(=O)Nc3ccc(Cl)cn3)c2)cc1` [Compound 103, 3-(N-(4-Acetylphenyl)-N-methylsulfamoyl)-N-(5-chloropyridin-2-yl)benzamide], for which, in series [1], the “Mean remaining parent NADPH-free (%)” value was 82% and the “Mean remaining parent with NADPH (%)” value stood at 12%. In addition, in series [2], the “Mean remaining parent NADPH-free (%)” value was 91% and the “Mean remaining parent with NADPH (%)” value is given as 0%.

What is called inhibition is the drop in the measured response relative to a control, in per cent. The low end stands for a response near the control, the high end for a response far below the control. For orientation: melting point means the temperature of the solid-liquid transition. Consider `CSc1ccc(COc2cccc(C(=O)Nc3ccc(C#N)cc3)c2)cc1` [Compound 216a, N-(4-cyanophenyl)-3-((4-(methylthio)benzyl)oxy)benzamide], for which the melting point lay within 147 to 148 °C. The inhibition at 10 µM against SIRT2 turned out to be 60%.

`CSc1ccc(COc2cccc(C(=O)Nc3ccc(C#N)cn3)c2)cc1` [Compound 216b, N-(5-cyanopyridin-2-yl)-3-((4-(methylthio)benzyl)oxy)benzamide] yielded a melting point of 146 to 147 °C. For the same molecule, 10 µM produced 22% inhibition on SIRT2.

In turn, `COc1ccc(COc2cccc(C(=O)Nc3ccc(C#N)cc3)c2)cc1` [Compound 216c, N-(4-cyanophenyl)-3-((4-methoxybenzyl)oxy)benzamide] returned a melting point of 147 to 148 °C. On SIRT2, the inhibition at 10 µM came to 40%.

In the case of `COc1ccc(COc2cccc(C(=O)Nc3ccc(C#N)cn3)c2)cc1` [Compound 216d, N-(5-cyanopyridin-2-yl)-3-((4-methoxybenzyl)oxy)benzamide], the melting point fell in the range of 132 to 134 °C. At SIRT2, the inhibition at 10 µM was 8%.

Regarding `C[S+]([O-])c1ccc(COc2cccc(C(=O)Nc3ccc(C#N)cc3)c2)cc1` (stereo not shown) [Compound 216e], the melting point lay in the range of 174 to 175 °C. This molecule gave an inhibition at 10 µM against SIRT2 of 32%.

As to `COc1ccc(COc2cccc(C(=O)Nc3ccc(S(C)(=O)=O)cc3)c2)cc1` [Compound 216f, 3-((4-methoxybenzyl)oxy)-N-(4-(methylsulfonyl)phenyl)benzamide], the melting point lay in the range of 173 to 174 °C. This molecule gave an inhibition at 10 µM at SIRT2 of 36%.

Consider `N#Cc1ccc(NC(=O)c2cccc(OCc3ccc(F)cc3)c2)cc1` [Compound 216g, N-(4-cyanophenyl)-3-((4-fluorobenzyl)oxy)benzamide], for which the melting point is 149 to 150 °C. The molecule also came in with an inhibition at 10 µM against SIRT2 of 64%.

In turn, `COc1ccc(COc2cccc(C(=O)Nc3ccc([S+](C)[O-])cc3)c2)cc1` (stereo not shown) [Compound 216h, 3-((4-methoxybenzyl)oxy)-N-(4-(methylsulfinyl)phenyl)benzamide] displayed a melting point of 135 to 136 °C. The same molecule showed an inhibition at 10 µM on SIRT2 of 50%.

On to `N#Cc1ccc(NC(=O)c2cccc(OCc3ccc(F)cc3)c2)nc1` [Compound 216i, N-(5-cyanopyridin-2-yl)-3-((4-fluorobenzyl)oxy)benzamide], for which the melting point is 170 to 171 °C. The same molecule yielded an inhibition at 10 µM on SIRT2 of 15%.

With `N#Cc1ccc(NC(=O)c2cccc(OCc3ccc(C(F)(F)F)cc3)c2)cc1` [Compound 216j, N-(4-cyanophenyl)-3-((4-(trifluoromethyl)benzyl)oxy)benzamide], the melting point was in the range of 167 to 168 °C. For the same molecule, at SIRT2, the inhibition at 10 µM came out at 67%.

`CS(=O)(=O)c1ccc(COc2cccc(C(=O)Nc3ccc(C#N)cc3)c2)cc1` [Compound 216k, N-(4-cyanophenyl)-3-((4-(methylsulfonyl)benzyl)oxy)benzamide] registered a melting point of 209 to 210 °C. At 10 µM the inhibition against SIRT2 was 39%.

`N#Cc1ccc(NC(=O)c2cccc(OCc3ccc(OC(F)(F)F)cc3)c2)cc1` [Compound 216m, N-(4-cyanophenyl)-3-((4-(trifluoromethoxy)benzyl)oxy)benzamide] displayed a melting point of 138 to 139 °C. Moreover, at 10 µM the inhibition against SIRT2 was 56%.

`N#Cc1ccc(NC(=O)c2cccc(OCc3ccc(Cl)cn3)c2)cc1` [Compound 216n, 3-((5-chloropyridin-2-yl)methoxy)-N-(4-cyanophenyl)benzamide]: the melting point was 168 to 169 °C. Further, at 10 µM the inhibition against SIRT2 was 34%.

Take `N#Cc1ccc(COc2cccc(C(=O)Nc3ccc(C#N)cc3)c2)cc1` [Compound 216q, 3-((4-cyanobenzyl)oxy)-N-(4-cyanophenyl)benzamide]: the melting point was 205 to 207 °C. Besides, testing at 10 µM against SIRT2 gave an inhibition of 56%.

Molecule `C[C@@H](Oc1cncc(C(=O)Nc2ccc(C#N)cc2)c1)c1ccc(F)cc1` [Compound 216r, (R)—N-(4-cyanophenyl)-5-(1-(4-fluorophenyl)ethoxy)nicotinamide] came in with a melting point of 151 to 152 °C. Further, the inhibition at 10 µM against SIRT2 was 69%.

`C[C@H](Oc1cncc(C(=O)Nc2ccc(C#N)cc2)c1)c1ccc(F)cc1` [Compound 216s, (S)—N-(4-cyanophenyl)-5-(1-(4-fluorophenyl)ethoxy)nicotinamide] displayed a melting point of 152 to 153 °C. Besides, 10 µM produced 27% inhibition at SIRT2.

Turning to `N#Cc1ccc(COc2cncc(C(=O)Nc3ccc(C#N)cc3)c2)cc1` [Compound 216t, 5-((4-cyanobenzyl)oxy)-N-(4-cyanophenyl)nicotinamide], the melting point was 266 to 268 °C (dec.). At SIRT2, this molecule registered an inhibition at 10 µM of 0%.

Turning to `CC(=O)c1ccc(COc2cncc(C(=O)Nc3ccc(C#N)cc3)c2)cc1` [Compound 216u, 5-((4-acetylbenzyl)oxy)-N-(4-cyanophenyl)nicotinamide], the melting point was 228 to 229 °C (dec.). Also, testing at 10 µM against SIRT2 gave an inhibition of 0%.

On to `N#Cc1ccc(COc2cc(O)cc(C(=O)Nc3ccc(C#N)cc3)c2)cc1` [Compound 216w, 3-((4-cyanobenzyl)oxy)-N-(4-cyanophenyl)-5-hydroxybenzamide], for which the melting point is 199 to 201 °C. The molecule also came in with an inhibition at 10 µM against SIRT2 of 15%.

In the case of `N#Cc1ccc(NC(=O)c2cccc(OCc3ccc(F)c(F)c3)c2)cc1` [Compound 216z, N-(4-cyanophenyl)-3-((3,4-difluorobenzyl)oxy)benzamide], the melting point lay within 173 to 174 °C. Further, the inhibition at 10 µM on SIRT2 is 64%.

Molecule `N#Cc1ccc(NC(=O)c2cccc(NCc3ccc(F)cc3)c2)cc1` [Compound 221a, N-(4-cyanophenyl)-3-((4-fluorobenzyl)amino)benzamide] displayed a melting point of 173 to 174 °C. Besides, the inhibition at 10 µM against SIRT2 was found to be 41%.

`CN(Cc1ccc(F)cc1)c1cccc(C(=O)Nc2ccc(C#N)cc2)c1` [Compound 221c, N-(4-cyanophenyl)-3-((4-fluorobenzyl)(methyl)amino)benzamide] had a melting point of 176 to 177 °C. On SIRT2, this molecule showed an inhibition at 10 µM of 75%.
